Test results taken from the supplement of paper PMC10307832.

Legend:
Test in all cases: relative viability (nuclei count vs DMSO), 5 days (fraction); higher = more cells survive
[1] = compound: C1=CC=C2C(=C1)N=C(S2)C(C#N)C3=NC(=NC=C3)NCCC4=CN=CC=C4 + Cc1nc(NC(=O)N2CCC[C@H]2C(N)=O)sc1-c1ccnc(C(C)(C)C(F)(F)F)c1 [Alpelisib] (partner 2 µM)
Procedure, shortened: (§1)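 Each reported value is a median over duplicate plates. It expresses relative viability: treated-well nuclei count divided by vehicle-well nuclei count. Lung cancer cell lines in 1536-well plates were dosed by pin tool a day after seeding, alone with one drug or with a fixed anchor-drug dose plus five library-drug doses (not always all listed) in √10 steps, and nuclei were counted after 5 days.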

[2] = compound: COc1cc(N2CCC(N3CCN(C)CC3)CC2)ccc1Nc1ncc(Cl)c(Nc2ccccc2S(=O)(=O)C(C)C)n1 [NVP-TAE684] + Cc1cc(Nc2cc(N3CCN(C)CC3)nc(Sc3ccc(NC(=O)C4CC4)cc3)n2)n[nH]1 [Tozasertib] (partner 0.1 µM)
Procedure, shortened: as §1

[3] = compound: COc1cc2/c(=N/c3ccc(Br)cc3F)nc[nH]c2cc1OCC1CCN(C)CC1 [Vandetanib] + COc1cccc2cc(-c3nc([C@H]4CC[C@H](C(=O)O)CC4)n4ncnc(N)c34)[nH]c12 [OSI-027] (partner 0.5 µM)
Procedure, shortened: as §1

[4] = compound: C#Cc1cccc(Nc2ncnc3cc(OC)c(OCCCCCCC(=O)NO)cc23)c1 [CUDC-101] + Cc1cc(Nc2cc(N3CCN(C)CC3)nc(Sc3ccc(NC(=O)C4CC4)cc3)n2)n[nH]1 [Tozasertib] (partner 0.1 µM)
Procedure, shortened: as §1

Cell Line	relative viability ([1]; first compound 0.005 µM)	relative viability ([1]; first compound 0.01581 µM)	relative viability ([1]; first compound 0.05 µM)	relative viability ([1]; first compound 0.1581 µM)	relative viability ([1]; first compound 0.5 µM)	relative viability ([2]; first compound 0.2 µM)	relative viability ([2]; first compound 0.6325 µM)	relative viability ([2]; first compound 2 µM)	relative viability ([3]; first compound 0.02 µM)	relative viability ([3]; first compound 0.06325 µM)	relative viability ([3]; first compound 0.2 µM)	relative viability ([3]; first compound 2 µM)	relative viability ([4]; first compound 0.01 µM)	relative viability ([4]; first compound 0.03162 µM)	relative viability ([4]; first compound 0.1 µM)	relative viability ([4]; first compound 0.3162 µM)	relative viability ([4]; first compound 1 µM)	relative viability ([3]; first compound 0.6325 µM)
201T	0.995	1.08	1.04	1.03	0.967	0.925	0.942	0.536	0.69	0.664	0.719	0.672	0.927	0.899	0.876	0.69	0.536	–
A549	0.64	0.9	0.696	1.02	0.82	–	–	–	–	–	–	–	–	–	–	–	–	–
A-427	1.08	1.01	0.996	1.09	1.16	0.175	0.187	0.144	0.542	0.486	0.53	0.432	0.211	0.227	0.219	0.205	0.165	0.481
ABC-1	1.05	1.05	1.2	0.961	1.07	0.17	0.147	0.127	0.43	0.464	0.488	0.254	0.139	0.186	0.189	0.166	0.128	0.479
BEN	0.763	1.1	0.931	0.99	0.932	0.513	0.492	0.392	0.247	0.302	0.292	0.282	0.54	0.505	0.452	0.47	0.427	0.285
CAL-12T	0.982	1.23	1.31	1.49	1.05	0.278	0.315	0.117	0.701	0.655	0.541	0.291	0.409	0.278	0.318	0.344	0.362	0.626
COR-L23	0.748	0.756	0.841	0.877	0.742	0.197	0.223	0.138	0.731	0.671	0.736	0.789	0.245	0.202	0.208	0.218	0.159	0.684
COR-L 105	1.06	1.22	0.856	0.955	0.678	0.364	0.315	0.23	0.629	0.641	0.507	0.329	0.266	0.353	0.342	0.27	0.311	0.411
Calu-6	0.957	0.921	0.921	1.03	0.998	–	–	–	–	–	–	–	–	–	–	–	–	–
ChaGo-K-1	–	–	–	–	–	0.214	0.206	0.16	0.532	0.54	0.515	0.591	0.216	0.214	0.246	0.238	0.208	0.602
EBC-1	0.819	0.935	0.76	0.829	0.925	–	–	–	–	–	–	–	–	–	–	–	–	–
EKVX	0.763	0.981	0.902	0.844	0.69	0.391	0.36	0.274	0.741	0.693	0.723	0.563	0.392	0.32	0.394	0.366	0.295	0.67
EMC-BAC-2	0.566	0.768	0.686	0.76	0.67	0.284	0.266	0.233	0.382	0.358	0.318	0.38	0.312	0.208	0.251	0.209	0.199	0.381
EPLC-272H	0.854	0.819	1.02	1.03	0.768	0.25	0.21	0.103	0.319	–	0.305	0.265	0.216	0.284	0.306	0.231	0.121	0.286
H3255	0.545	0.685	0.591	0.806	0.692	0.639	0.717	0.409	0.655	0.459	0.455	0.227	0.649	0.591	–	0.549	0.135	0.417
HARA	0.794	0.794	0.744	0.893	0.838	0.0965	0.0875	0.0538	0.542	0.299	0.466	0.483	0.116	0.108	0.101	0.0938	0.0704	0.525
HCC-15	0.927	0.833	0.905	0.954	0.853	0.368	0.389	0.176	0.75	0.638	0.668	0.537	0.383	0.368	0.314	0.322	0.238	0.682
HCC-44	0.716	0.835	0.737	0.915	0.638	1	0.848	0.338	0.434	0.49	0.574	0.427	0.795	0.899	0.999	0.917	0.7	0.439
HCC-78	0.366	0.316	0.353	0.366	0.378	0.361	0.429	0.217	0.374	0.39	0.42	0.361	0.401	0.405	0.36	0.316	0.184	0.364
HCC-366	0.428	0.475	0.314	0.475	0.389	0.108	0.124	0.0322	0.807	0.876	0.978	0.948	0.127	0.111	0.0975	0.111	0.0886	0.824
HCC-827	0.962	1.01	0.943	1.15	1.02	0.462	0.41	0.715	0.895	0.752	0.707	0.149	0.381	0.236	0.143	0.111	0.101	0.164

Cell Line	relative viability ([1]; first compound 0.005 µM)	relative viability ([1]; first compound 0.01581 µM)	relative viability ([1]; first compound 0.05 µM)	relative viability ([1]; first compound 0.1581 µM)	relative viability ([1]; first compound 0.5 µM)	relative viability ([2]; first compound 0.2 µM)	relative viability ([2]; first compound 0.6325 µM)	relative viability ([2]; first compound 2 µM)	relative viability ([3]; first compound 0.02 µM)	relative viability ([3]; first compound 0.06325 µM)	relative viability ([3]; first compound 0.2 µM)	relative viability ([3]; first compound 2 µM)	relative viability ([4]; first compound 0.01 µM)	relative viability ([4]; first compound 0.03162 µM)	relative viability ([4]; first compound 0.1 µM)	relative viability ([4]; first compound 0.3162 µM)	relative viability ([4]; first compound 1 µM)	relative viability ([3]; first compound 0.6325 µM)
HOP-62	0.966	1.34	1.09	1.3	1.21	0.397	0.386	0.294	0.789	0.739	0.815	0.846	0.343	0.379	0.399	0.405	0.321	0.903
IA-LM	–	0.628	0.608	0.916	0.734	–	–	–	–	–	–	–	–	–	–	–	–	–
LC-2-ad	0.768	0.867	0.822	0.966	0.734	0.448	0.377	0.286	0.848	0.761	0.777	0.446	0.445	0.47	0.449	0.326	0.276	0.675
LCLC-97TM1	0.217	0.208	0.257	0.257	0.217	0.184	0.224	0.0618	0.669	0.324	0.514	0.481	0.197	0.357	0.152	0.195	0.104	0.394
LCLC-103H	0.926	0.983	0.971	0.901	0.915	0.432	0.433	0.303	0.428	0.44	0.438	0.448	0.54	0.494	0.485	0.418	0.322	0.423
LK-2	–	–	0.993	1.3	1.11	0.154	0.191	0.179	0.243	0.213	0.203	0.227	0.149	0.222	0.185	0.195	0.139	0.197
LOU-NH91	0.707	0.752	0.62	0.723	0.698	0.622	0.576	0.475	0.76	0.604	0.599	0.515	0.703	0.548	0.472	0.411	0.305	0.502
LU99A	0.509	0.545	0.522	0.548	0.536	0.298	0.293	0.206	0.267	0.314	0.267	0.317	0.273	0.269	0.242	0.277	0.273	0.264
LXF-289	0.979	1.15	1.04	1.12	0.998	0.263	0.168	0.0842	0.774	0.708	0.877	0.741	0.168	0.184	0.219	0.211	0.143	0.771
NCI-H23	–	0.74	0.582	0.845	0.725	0.402	0.367	0.241	0.513	0.559	0.573	0.746	0.34	0.315	0.288	0.384	0.574	0.613
NCI-H322M	0.825	0.77	0.68	0.899	0.709	0.42	0.414	0.294	0.573	0.551	0.608	0.422	0.477	0.476	0.45	0.413	0.339	0.49
NCI-H522	–	–	–	–	–	0.53	0.692	0.509	0.77	0.727	0.772	0.61	0.602	0.53	0.539	0.528	0.366	0.674
NCI-H1299	1.06	1.14	1.04	1.13	1.1	–	–	–	–	–	–	–	–	–	–	–	–	–
NCI-H1563	0.924	0.869	0.947	0.962	0.861	–	–	–	0.79	0.8	0.743	0.734	–	–	–	–	–	0.76
NCI-H1623	–	–	–	–	–	0.442	0.427	0.393	0.479	0.439	0.454	0.455	0.406	0.379	0.389	0.356	0.272	0.398
NCI-H1648	–	–	–	–	–	0.413	0.458	0.262	0.253	0.276	0.28	0.252	0.64	–	0.636	0.362	0.221	0.258
NCI-H1650	–	–	–	–	–	0.317	0.385	0.165	0.621	0.436	0.552	0.439	0.398	0.318	0.305	0.383	0.267	0.452
NCI-H1703	0.338	0.31	0.344	0.362	0.357	–	–	–	–	–	–	–	–	–	–	–	–	–
NCI-H1792	–	0.817	0.696	0.891	0.517	–	–	–	0.761	0.715	0.784	0.63	–	–	–	–	–	0.751
NCI-H2342	–	–	–	–	–	0.572	0.485	0.297	0.616	0.597	0.644	0.591	0.592	0.55	0.474	0.437	0.453	0.669
SW 900	–	–	–	–	–	0.576	0.531	0.322	0.456	0.486	0.315	0.713	0.471	0.633	0.566	0.526	0.519	0.622
